# Experimental data reported in publication PMC8301170, “New Benzimidazothiazolone Derivatives as Tyrosinase Inhibitors with Potential Anti-Melanogenesis and Reactive Oxygen Species Scavenging Activities” (Antioxidants, 2021).
# Entries after “also recorded” stand apart in the source; their conditions may differ.
# What was measured:
# [1] = target: mushroom tyrosinase (Agaricus bisporus, UniProt C7FF04); experiment: Enzyme kinetic analysis of mushroom tyrosinase (Lineweaver–Burk and Dixon plots); format: biochemical; conditions: L-tyrosine substrate 0.5–4 mM
# Method: Lineweaver–Burk and Dixon plots were used to calculate the inhibition mode and inhibition constant (Ki) against mushroom tyrosinase. Kinetic parameters for various concentrations of the L-tyrosine substrate (0.5–4 mM) and inhibitors (0.4, 2, and 10 µM for compound 1; and 2, 4, and 8 µM for compound 2; and 2.5, 5, and 10 µM for compound 3, respectively) were achieved.
# To elucidate the type of enzymatic inhibition, a kinetic analysis was accomplished at several concentrations of the L-tyrosine substrate and inhibitors (1–3), according to the Lineweaver–Burk and Dixon plot methods (Table 3 and Figure 2). […] Furthermore, the Dixon plot is a graphical method [plot of 1/enzyme velocity (1/V) against inhibitor concentration (I)] used to determine the type of enzymatic inhibition and the dissociation or inhibition constant (Kic) for the enzyme-inhibitor complex.
# Figure 2 Enzymatic kinetics study of compounds 1–3 against tyrosinase. Lineweaver–Burk plots for the inhibition of mushroom tyrosinase of compounds 1 (A), 2 (B), and 3 (C). Dixon plots for tyrosinase inhibition of compounds 1 (D), 2 (E), and 3 (F) using L-tyrosine as the substrate.
# [2] = ROS scavenging activity, DCFDA assay, cell-free in vitro; conditions: SIN-1-induced oxidative stress
# Method: (§1) ROS scavenging activity was determined according to the method reported by Ali et al. and Lebel and Bondy. Briefly, 2′,7′-Dichlorodihydrofluorescein-diacetate (DCFH-DA) (2.5 mM, Molecular Probes, Eugene, OR, USA) mixed with esterase (1.5 units/mL), was incubated at 37 °C for 30 min and placed on ice in the dark until immediately prior to the study. Phosphate buffer (50 mM) at pH 7.4 was used. To determine intracellular ROS scavenging activity, B16F10 cells (1 × 10^4/well) were seeded in black 96-well plates. After 24 h, the cells were incubated with DCFH-DA (20 µM) and SIN-1 ([…]) for 30 min to induce ROS generation. The fluorescence intensity of oxidized DCFH was measured using a fluorescent microplate reader at excitation and emission wavelengths of 485 and 530 nm, respectively (Tecan, Männedorf, Switzerland). Trolox was used as the positive control.
# ROS may regulate melanogenesis in melanoma cells. The principle of the intracellular ROS assay is that DCF-DA spreads through the cell membrane and is enzymatically hydrolyzed to […] by esterase; DCFH then responses with ROS to yield DCF [56]. The ROS scavenging activity of compounds 1–3 was investigated in vitro by using fluorescence probes, (DCF-DA) for ROS. SIN-1 is used as an NO donor [57, 58]. […] . […] The importance of catechol moiety (3,4-dihydroxy group) for ROS scavenging activity was reported in previous studies in the literature.
# Figure 5 Reactive oxygen species (ROS) scavenging activity of compound 2. The inhibitory effect of compound 2 on ROS production was evaluated. A DCFDA assay was performed to determine ROS levels. The ROS scavenger trolox was used as the positive control. The scavenging activity of compound 2 on oxidative stress induced by 10 µM SIN-1 was estimated in cell-free in vitro (A). B16F10 cells were pre-treated with compound 2 and trolox for 3 h and further treated with 10 µM SIN-1 (B).
# [3] = system: B16F10 cells; experiment: Intracellular ROS levels in SIN-1-treated B16F10 cells; format: cell-based, mouse; conditions: pre-treated 3 h, then SIN-1
# Method: as §1
# ROS may regulate melanogenesis in melanoma cells. The principle of the intracellular ROS assay is that DCF-DA spreads through the cell membrane and is enzymatically hydrolyzed to […] by esterase; DCFH then responses with ROS to yield DCF [56]. The ROS scavenging activity of compounds 1–3 was investigated in vitro by using fluorescence probes, (DCF-DA) for ROS. SIN-1 is used as an NO donor [57, 58]. […]
# Figure 5 Reactive oxygen species (ROS) scavenging activity of compound 2. The inhibitory effect of compound 2 on ROS production was evaluated. […]
# [4] = system: tyrosinase, p-CREB, p-PKA, MITF, p-JNK, p-ERK, p-p38; experiment: Western blot analysis of melanogenic signaling proteins in α-MSH- and IBMX-induced B16F10 cells; format: cell-based, mouse
# Method: Lysed samples were boiled for 10 min with gel-loading buffer (0.125 M Tris-HCl, pH 6.8, 4% SDS, 10% 2-mercaptoethanol and 0.2% bromophenol blue) at a volume ratio of 1:1. Total protein equivalents were separated with SDS-PAGE using 9–10% acrylamide gels and then transferred onto polyvinylidene fluoride membranes (Millipore, Burlington, MA, USA) at 25 V for 10 min in a semi-dry transfer system (Bio-Rad Laboratories, Hercules, CA, USA). The membranes were immediately placed in blocking buffer (5% non-fat milk) in 10 mM Tris (pH 7.5), 100 mM NaCl, and 0.1% Tween-20. The blots were blocked at room temperature for 1 h. The membranes were incubated with appropriate specific primary antibodies at 4 °C overnight and then treated with horseradish peroxidase-conjugated anti-mouse, anti-rabbit or anti-goat antibodies (1:5000) at 25 °C for 1 h (Santa Cruz Biotechnology, Dallas, TX, USA). Protein bands were visualized using the SuperSignal® West Pico Chemiluminescent Substrate kit (Advansta, San Jose, CA, USA) and Davinch-Chemi^TM (Davinch-K, Seoul, Korea).
# It is important to determine whether the inhibition of melanin synthesis by compound 2 is related to melanogenesis signaling and gene expression. […] MITF, a leucine zipper transcription factor, activates the expression of multiple genes encoding enzymes involved in the conversion of tyrosine into melanin, resulting in increased levels of these melanin-producing proteins. […] The skin is site of oxidative stress due to exposure to daylight and environmental oxidizing pollutants. It is known that ROS stimulates α-MSH- and IBMX-induced production in melanoma cells leading to melanogenesis by upregulating MITF, a transcription factor that induces tyrosinase gene expression. […] However, the levels of phosphorylated p38 were not affected by treatment with compound 2. In our study, both p-JNK and p-ERK were decreased by compound 2.
# (§2) Figure 7 Effects of compound 2 on melanogenic proteins and mRNA levels in α-MSH- and IBMX-induced B16F10 cells. […] The expression levels of tyrosinase, p-CREB, p-PKA, p-JNK, p-ERK, p-p38, and β-actin were determined with Western blotting in the cytosolic fraction. β-actin was used as the loading control (A,B,D,E). The expression levels of MITF and TFIIB were determined with Western blotting in the nuclear fraction. TFIIB was used as the loading control (C). Relative mRNA levels of the melanogenic genes MITF, Tyrosinase, Trp1, and Trp2 in the cells were quantified using real-time qPCR and normalized to the GAPDH mRNA level (F).
# [5] = system: MITF, tyrosinase, TRP1, TRP2 mRNA; experiment: Real-time qPCR of melanogenic genes in α-MSH- and IBMX-induced B16F10 cells; format: cell-based, mouse; conditions: normalized to GAPDH
# Method: RNA from cell samples was purified using the RiboEx Total RNA solution (GeneAll Biotechnology, Seoul, Korea) according to the manufacturer’s instructions. Total RNA (2 µg) treated with ribonuclease (RNase) free deoxyribonuclease (DNase) was reverse-transcribed using Hyperscript^TM One-Step RT-PCR (GeneAll Biotechnology, Seoul, Korea). Real-time qPCR was performed using the SensiFAST^TM SYBR® No-ROX dye (Bioline, London, UK.) and a CFX Connect System (Bio-Rad Laboratories, Hercules, CA, USA). Relative gene expression was calculated with the standard curve method using GAPDH as the internal control. Ct values were obtained with qPCR. Three independent tests were performed.
# The effects of compound 2 on the expression of mRNA melanogenic factors were evaluated in α-MSH- and IBMX-induced B16F10 cells. […] The mRNA levels of tyrosinase, TRP1, TRP2, and MITF were quantified with real-time qPCR (Figure 7F).
# as §2, with “TFIIB was used as the loading control (C). Relative mRNA levels of the melanogenic genes MITF, Tyrosinase, Trp1, and Trp2 in the cells were quantified using real-time qPCR and normalized to the GAPDH mRNA level (F).” left out
# [6] = system: B16F10 cells; experiment: Cell viability, EZ-Cytox assay; format: cell-based, mouse; conditions: 5–200 µM, 48 h, vs vehicle control
# Method: The mouse melanoma cell line B16F10 was acquired from American Type Culture Collection (ATCC®; CCL-6475™) (Manassas, VA, USA) and cultured in DMEM, supplemented with 10% fetal bovine serum (FBS) and 1% penicillin–streptomycin, at 37 °C in a humidified 5% CO2 atmosphere. Cell viability assays were performed with minor modifications, as previously reported. Cell viability was evaluated using the EZ-Cytox assay kit (DaeilLab, Seoul, Korea). The compounds were dissolved in DMSO for the in vitro experiments.
# The EZ-Cytox assay was used to estimate cell viability. […] Consequently, 20 µM sample concentrations of compounds 1–3 and trolox were used for further experiments.
# Figure 4 Effects of compounds 1–3 and trolox on the viability of B16F10 cells. Cells were incubated with different concentrations (5–200 µM) of compound 1 (A), 2 (B), 3 (C), and trolox (D) for 48 h, and cell viability was determined using EZ-Cytox assay. *** p < 0.001 vs. DMSO-treated.
# [7] = system: B16F10 cells; experiment: Melanin contents in α-MSH and IBMX-induced B16F10 cells; conditions: α-MSH and IBMX 48 h, 5, 10 and 20 µM
# Excerpt: All results were standardized to the total protein concentration of the cell lysates using the bicinchoninic acid (BCA) reagent (Thermo Fisher Scientific, Waltham, MA, USA).
# [8] = cytosolic fraction, 5, 10 and 20 µM
# Chain of mushroom tyrosinase (C7FF04 1-392): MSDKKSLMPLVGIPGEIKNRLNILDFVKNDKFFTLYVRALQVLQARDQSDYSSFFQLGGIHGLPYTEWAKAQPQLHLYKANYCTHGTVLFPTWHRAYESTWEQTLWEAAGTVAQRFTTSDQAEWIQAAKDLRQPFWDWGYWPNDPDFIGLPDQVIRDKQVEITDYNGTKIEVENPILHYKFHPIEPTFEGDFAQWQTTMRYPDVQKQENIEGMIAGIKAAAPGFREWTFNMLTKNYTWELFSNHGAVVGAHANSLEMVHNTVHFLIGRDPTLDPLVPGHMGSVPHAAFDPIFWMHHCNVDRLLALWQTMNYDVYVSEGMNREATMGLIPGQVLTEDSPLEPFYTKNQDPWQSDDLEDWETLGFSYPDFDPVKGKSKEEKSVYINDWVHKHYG
smiles,measurement,setting,value
O=c1/c(=C/c2ccc(O)c(O)c2)sc2nc3ccccc3n12 [Compound 2],Inhibition Type,[1],Competitive
same,IC50,[2],2.36 ± 0.48 µM
same,SIN-1-induced ROS generation in cells,[3],dose-dependently scavenged ROS; also recorded: reduced SIN-1-induced ROS generation in a dose-dependent manner
same,"expression of tyrosinase, phosphorylated CREB and PKA",[4]; [8],decreased their expression on these proteins in a dose-dependent manner
same,levels of phosphorylated JNK and ERK,[4]; [8],decreased the levels of phosphorylated JNK and ERK in a concentration-dependent manner
same,levels of phosphorylated p38,[4]; [8],not affected
same,MITF levels,"[4]; nuclear fraction, 5, 10 and 20 µM",significantly suppressed MITF levels
same,"mRNA levels of tyrosinase, TRP1, TRP2 and MITF",[5],significantly inhibited the expression
same,melting point,,≥ 300 °C
O=c1/c(=C/c2ccccc2O)sc2nc3ccccc3n12 [Compound 10],melting point,,244.2 to 245.2 °C
COc1ccc(/C=c2\sc3nc4ccccc4n3c2=O)cc1 [Compound 7],melting point,,239.5 to 241.8 °C
COc1ccc(/C=c2\sc3nc4ccccc4n3c2=O)c(OC)c1 [Compound 9],melting point,,250.1 to 257.5 °C
O=c1/c(=C/c2ccc(O)cc2O)sc2nc3ccccc3n12 [Compound 3],Inhibition Type,[1],Competitive
same,IC50,[2],≥ 50 µM
same,melting point,,263.7 to 268.3 °C
CCOc1cc(/C=c2\sc3nc4ccccc4n3c2=O)ccc1O [Compound 5],melting point,,210.7 °C
"Cc1c(C)c2c(c(C)c1O)CCC(C)(C(=O)O)O2 (stereo not shown) [Trolox, reference compound]",cell viability,[6],did not significantly affect cell viability at concentrations up to 20 µM
same,IC50,[2],13.2 ± 0.73 µM
COc1cc(/C=c2\sc3nc4ccccc4n3c2=O)cc(OC)c1OC [Compound 11],melting point,,215.1 °C
O=c1/c(=C/c2ccc(O)cc2)sc2nc3ccccc3n12 [Compound 1],Inhibition Type,[1],Competitive
same,IC50,[2],≥ 50 µM
same,melting point,,≥ 300 °C
same,effect on melanin contents,[7],reduced the melanin content at 20 µM
COc1cc(/C=c2\sc3nc4ccccc4n3c2=O)ccc1O [Compound 4],melting point,,262.3 to 264 °C
COc1ccc(/C=c2\sc3nc4ccccc4n3c2=O)cc1O [Compound 6],melting point,,249.6 to 252.1 °C
COc1cc(/C=c2\sc3nc4ccccc4n3c2=O)cc(OC)c1O [Compound 12],melting point,,261.9 to 269.1 °C
COc1ccc(/C=c2\sc3nc4ccccc4n3c2=O)cc1OC [Compound 8],melting point,,236.7 to 236.9 °C
O=c1/c(=C/c2ccc(O)c(Br)c2)sc2nc3ccccc3n12 [Compound 13],melting point,,293.7 to 297 °C
